Data from patent US7951956B2, “Benzoimidazole compound capable of inhibiting prostaglandin D synthetase” (Taiho Pharmaceuticals Co., Ltd., priority 2005, dated 2011).

Target: human hematopoietic synthase (Homo sapiens, UniProt O60760)
Assay: Hematopoietic synthase inhibitory activity (Experiment 1)
Type: biochemical
Conditions: [14C] prostaglandin H2 10 μM, preincubated at 25° C. for 5 minutes, 1 minute reaction; read-out: Concentration of Pharmaceutical Compound Required to Inhibit 50% of Hematopoietic Synthase
Experimental: Experiment 1 was carried out according to the method of Urade, Y. et al. (J. Biol. Chem. 262, 3820-3825, (1987)). More specifically, the reaction mixture (49 μL); 100 mM Tris-HCl (pH 8.0), 1 mM reduced glutathione, 0.1 mg/mL γ-globulin, and human hematopoietic synthase (quantum sufficient), and a test compound (final concentration: 0.01-100 μM) were preincubated at 25° C. for 5 minutes. In place of the test compound, a DMSO solution (final concentration: 1%) was used in the solvent control group (Control Group). Subsequently, 1 μL of [^14C] prostaglandin H2 (final concentration: 10 μM) was added to start the reaction. One minute after the start of the reaction, 250 μL of a reaction stopper solution (diethylether/methanol/1M citric acid (30/4/1) cooled to −20° C. was added to stop the reaction.
Thereafter, 50 μL of the upper layer portion (organic solvent phase) was applied to a TLC plate and developed at −20° C. for 45 minutes (developer: diethylether/methanol/acetic acid (capacity ratio=90/2/1)). After drying the plate, the plate was exposed to an imaging plate for 1 to 24 hours, and the radioactivity corresponding to prostaglandin D2 was analyzed using an image analyzer (product of FUJIFILM Corporation). The area (%) occupied by the prostaglandin D2 band per lane was calculated, and the concentration of the test compound required to inhibit 50% of the hematopoietic synthase (IC50 value) was calculated by comparison with the Control group in each experiment.

Chain of human hematopoietic synthase (O60760 whole entry): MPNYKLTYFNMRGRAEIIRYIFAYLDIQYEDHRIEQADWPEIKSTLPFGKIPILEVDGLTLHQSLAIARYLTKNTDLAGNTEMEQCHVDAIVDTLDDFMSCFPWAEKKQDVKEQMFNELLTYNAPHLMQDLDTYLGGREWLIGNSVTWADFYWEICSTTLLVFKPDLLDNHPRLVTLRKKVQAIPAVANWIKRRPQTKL

**Q.** Which IC50 does the source give for `CCOC(=O)c1[nH]c(C)c(-c2nc3cc(Sc4ccncc4)c(Oc4ccccc4)cc3[nH]2)c1C` [Comparative Example 1, 4-(5-(4-Pyridylsulfenyl)-6-phenoxybenzimidazole-2-yl)-3,5-dimethylpyrrole-2-carboxylic acid ethyl ester, reference compound] here?
**A.** > 30000 nM

**Q.** For `Cc1[nH]c(C(=O)N(C)C)c(C)c1-c1nc2cc(Sc3ccncc3)c(Oc3ccccc3)cc2[nH]1` [Comparative Example 2, (N,N-Dimethyl)-4-(5-(4-pyridylsulfenyl)-6-phenoxybenzimidazole-2-yl)-3,5-dimethylpyrrole-2-carboxamide, reference compound], which IC50 is on record?
**A.** > 30000 nM

**Q.** Which IC50 does the source give for `O=C(c1ccccc1)c1ccc2[nH]c(-c3ccc(P(=O)(O)O)o3)nc2c1` [Comparative Example 3, 5-Benzophenone-2-(2-phosphono-5-furanyl)benzimidazole dihydrate, reference compound] here?
**A.** 29300 nM

**Q.** `Cc1oc(C(=O)NCc2ccc3c(c2)OCO3)c(C)c1-c1nc2cc(C(=O)c3ccccc3)ccc2[nH]1` [Compound 4, N-(3,4-Methylenedioxyphenyl)methyl-4-(5-benzoylbenzimidazol-2-yl)-3,5-dimethylfuran-2-carboxamide] was tested. Which IC50 did it give?
**A.** 278 nM

**Q.** Which IC50 does the source give for `Cc1[nH]c(C(=O)O)c(C)c1-c1nc2cc(C(=O)c3ccccc3)ccc2[nH]1` [Compound 10, 4-(5-Benzoylbenzimidazol-2-yl)-3,5-dimethylpyrrole-2-carboxylic acid] here?
**A.** 436 nM

**Q.** How did the IC50 turn out when `Cc1[nH]c(C(=O)N(C)CCN(C)C)c(C)c1-c1nc2cc(C(=O)c3ccccc3)ccc2[nH]1` [Compound 11, N-Methyl-N-(2-dimethylaminoethyl)-4-(5-benzoylbenzimidazol-2-yl)-3,5-dimethylpyrrole-2-carboxamide] was run?
**A.** 269 nM

**Q.** Which IC50 does the source give for `Cc1[nH]c(C(N)=O)c(C)c1-c1nc2cc(C(=O)c3ccccc3)ccc2[nH]1` [Compound 12, 4-(5-Benzoylbenzimidazol-2-yl)-3,5-dimethylpyrrole-2-carboxamide] here?
**A.** 100 nM

**Q.** Which IC50 does the source give for `CONC(=O)c1[nH]c(C)c(-c2nc3cc(C(=O)c4ccccc4)ccc3[nH]2)c1C` [Compound 14, N-(Methoxy)-4-(5-benzoylbenzimidazol-2-yl)-3,5-dimethylpyrrole-2-carboxamide] here?
**A.** 355 nM

**Q.** How did the IC50 turn out when `COCCCNC(=O)c1[nH]c(C)c(-c2nc3cc(C(=O)c4ccccc4)ccc3[nH]2)c1C` [Compound 16, N-(3-Methoxypropyl)-4-(5-benzoylbenzimidazol-2-yl)-3,5-dimethylpyrrole-2-carboxamide] was run?
**A.** 2280 nM

**Q.** `Cc1[nH]c(C(=O)NCCCN(C)C)c(C)c1-c1nc2cc(C(=O)c3ccccc3)ccc2[nH]1` [Compound 17, N-(3-Dimethylaminopropyl)-4-(5-benzoylbenzimidazol-2-yl)-3,5-dimethylpyrrole-2-carboxamide] was tested. Which IC50 did it give?
**A.** 124 nM

**Q.** How did the IC50 turn out when `CC(=O)NCCNC(=O)c1[nH]c(C)c(-c2nc3cc(C(=O)c4ccccc4)ccc3[nH]2)c1C` [Compound 18, N-(2-Acetamidoethyl)-4-(5-benzoylbenzimidazol-2-yl)-3,5-dimethylpyrrole-2-carboxamide] was run?
**A.** 80 nM

**Q.** `CCOC(=O)CCNC(=O)c1[nH]c(C)c(-c2nc3cc(C(=O)c4ccccc4)ccc3[nH]2)c1C` [Compound 19, N-(2-Ethoxycarbonylethyl)-4-(5-benzoylbenzimidazol-2-yl)-3,5-dimethylpyrrole-2-carboxamide] was tested. Which IC50 did it give?
**A.** 874 nM

**Q.** For `COC(=O)CNC(=O)c1[nH]c(C)c(-c2nc3cc(C(=O)c4ccccc4)ccc3[nH]2)c1C` [Compound 20, N-(1-Methoxycarbonylmethyl)-4-(5-benzoylbenzimidazol-2-yl)-3,5-dimethylpyrrole-2-carboxamide], which IC50 is on record?
**A.** 871 nM

**Q.** How did the IC50 turn out when `Cc1[nH]c(C(=O)NCC(=O)O)c(C)c1-c1nc2cc(C(=O)c3ccccc3)ccc2[nH]1` [Compound 22, N-(1-Carboxymethyl)-4-(5-benzoylbenzimidazol-2-yl)-3,5-dimethylpyrrole-2-carboxamide] was run?
**A.** 829 nM

**Q.** `Cc1[nH]c(C(=O)NCCN2CCCC2)c(C)c1-c1nc2cc(C(=O)c3ccccc3)ccc2[nH]1` [Compound 23, N-(2-Pyrrolidine-1-yl-ethyl)-4-(5-benzoylbenzimidazol-2-yl)-3,5-dimethylpyrrole-2-carboxamide] was tested. Which IC50 did it give?
**A.** 223 nM

**Q.** For `Cc1[nH]c(C(=O)NCCN2CCCCC2)c(C)c1-c1nc2cc(C(=O)c3ccccc3)ccc2[nH]1` [Compound 24, N-(2-Piperidine-1-yl-ethyl)-4-(5-benzoylbenzimidazol-2-yl)-3,5-dimethylpyrrole-2-carboxamide], which IC50 is on record?
**A.** 496 nM

**Q.** With `Cc1[nH]c(C(=O)NCC2CCCCC2)c(C)c1-c1nc2cc(C(=O)c3ccccc3)ccc2[nH]1` [Compound 25, N-(Cyclohexylmethyl)-4-(5-benzoylbenzimidazol-2-yl)-3,5-dimethylpyrrole-2-carboxamide] as the compound, how does the IC50 read?
**A.** 286 nM

**Q.** Which IC50 does the source give for `Cc1cc(NC(=O)c2[nH]c(C)c(-c3nc4cc(C(=O)c5ccccc5)ccc4[nH]3)c2C)no1` [Compound 26, N-(5-Methylisoxazole-3-yl)-4-(5-benzoylbenzimidazol-2-yl)-3,5-dimethylpyrrole-2-carboxamide] here?
**A.** 149 nM

**Q.** With `Cc1[nH]c(C(=O)Nc2ccc(C#N)cc2)c(C)c1-c1nc2cc(C(=O)c3ccccc3)ccc2[nH]1` [Compound 27, N-(4-Cyanophenyl)-4-(5-benzoylbenzimidazol-2-yl)-3,5-dimethylpyrrole-2-carboxamide] as the compound, how does the IC50 read?
**A.** 309 nM

**Q.** For `Cc1[nH]c(C(=O)Nc2ccc3[nH]ccc3c2)c(C)c1-c1nc2cc(C(=O)c3ccccc3)ccc2[nH]1` [Compound 28, N-(Indole-5-yl)-4-(5-benzoylbenzimidazol-2-yl)-3,5-dimethylpyrrole-2-carboxamide], which IC50 is on record?
**A.** 73 nM

**Q.** How did the IC50 turn out when `Cc1[nH]c(C(=O)Nc2ccc3c(c2)OCO3)c(C)c1-c1nc2cc(C(=O)c3ccccc3)ccc2[nH]1` [Compound 29, N-(3,4-Methylenedioxyphenyl-1-yl)-4-(5-benzoylbenzimidazol-2-yl)-3,5-dimethylpyrrole-2-carboxamide] was run?
**A.** 53 nM

**Q.** Which IC50 does the source give for `Cc1[nH]c(C(=O)Nc2ccc3c(c2)CCO3)c(C)c1-c1nc2cc(C(=O)c3ccccc3)ccc2[nH]1` [Compound 30, N-(2,3-Dihydrobenzofuran-5-yl)-4-(5-benzoylbenzimidazol-2-yl)-3,5-dimethylpyrrole-2-carboxamide] here?
**A.** 113 nM

**Q.** For `Cc1[nH]c(C(=O)Nc2ccc3ncsc3c2)c(C)c1-c1nc2cc(C(=O)c3ccccc3)ccc2[nH]1` [Compound 31, N-(Benzothiazole-6-yl)-4-(5-benzoylbenzimidazol-2-yl)-3,5-dimethylpyrrole-2-carboxamide], which IC50 is on record?
**A.** 90 nM

**Q.** Which IC50 does the source give for `Cc1[nH]c(C(=O)Nc2ccc3c(c2)OCCO3)c(C)c1-c1nc2cc(C(=O)c3ccccc3)ccc2[nH]1` [Compound 32, N-(3,4-Ethylenedioxyphenyl)-4-(5-benzoylbenzimidazol-2-yl)-3,5-dimethylpyrrole-2-carboxamide] here?
**A.** 124 nM

**Q.** With `Cc1[nH]c(C(=O)NCCc2ccccn2)c(C)c1-c1nc2cc(C(=O)c3ccccc3)ccc2[nH]1` [Compound 34, N-(2-(2-Pyridyl)ethyl)-4-(5-benzoylbenzimidazol-2-yl)-3,5-dimethylpyrrole-2-carboxamide] as the compound, how does the IC50 read?
**A.** 72 nM

**Q.** How did the IC50 turn out when `Cc1[nH]c(C(=O)NCc2ccc(Cl)c(Cl)c2)c(C)c1-c1nc2cc(C(=O)c3ccccc3)ccc2[nH]1` [Compound 35, N-(3,4-Dichlorobenzyl)-4-(5-benzoylbenzimidazol-2-yl)-3,5-dimethylpyrrole-2-carboxamide] was run?
**A.** 746 nM

**Q.** `COc1ccc(CNC(=O)c2[nH]c(C)c(-c3nc4cc(C(=O)c5ccccc5)ccc4[nH]3)c2C)cc1OC` [Compound 36, N-(3,4-Dimethoxybenzyl)-4-(5-benzoylbenzimidazol-2-yl)-3,5-dimethylpyrrole-2-carboxamide] was tested. Which IC50 did it give?
**A.** 195 nM

**Q.** How did the IC50 turn out when `Cc1[nH]c(C(=O)NCc2ccc3c(c2)OCO3)c(C)c1-c1nc2cc(C(=O)c3ccccc3)ccc2[nH]1` [Compound 37, N-(3,4-Methylenedioxyphenylmethyl)-4-(5-benzoylbenzimidazol-2-yl)-3,5-dimethylpyrrole-2-carboxamide] was run?
**A.** 213 nM

**Q.** For `Cc1[nH]c(C(=O)NCC2=NNC(=O)CC2)c(C)c1-c1nc2cc(C(=O)c3ccccc3)ccc2[nH]1` [Compound 38, N-(2,3,4,5-Tetrahydro-3-oxo-pyridazine-6-yl-methyl)-4-(5-benzoylbenzimidazol-2-yl)-3,5-dimethylpyrrole-2-carboxamide], which IC50 is on record?
**A.** 136 nM

**Q.** `Cc1[nH]c(C(=O)N2CCCC2)c(C)c1-c1nc2cc(C(=O)c3ccccc3)ccc2[nH]1` [Compound 39, ((4-(5-Benzoylbenzimidazol-2-yl)-3,5-dimethylpyrrol-2-yl)-carbonyl)pyrrolidine] was tested. Which IC50 did it give?
**A.** 351 nM

**Q.** Which IC50 does the source give for `Cc1[nH]c(C(=O)N2CCN(c3ccccc3)CC2)c(C)c1-c1nc2cc(C(=O)c3ccccc3)ccc2[nH]1` [Compound 41, ((4-(5-Benzoylbenzimidazol-2-yl)-3,5-dimethylpyrrol-2-yl)-carbonyl)-4-phenylpiperazine] here?
**A.** 1450 nM

**Q.** With `Cc1[nH]c(C(=O)N2CCC(O)CC2)c(C)c1-c1nc2cc(C(=O)c3ccccc3)ccc2[nH]1` [Compound 43, ((4-(5-Benzoylbenzimidazol-2-yl)-3,5-dimethylpyrrol-2-yl)-carbonyl)-4-hydroxypiperidine] as the compound, how does the IC50 read?
**A.** 791 nM
